According to patent publication US8653260B2, “Hydroxymethyl pyrrolidines as beta 3 adrenergic receptor agonists” (Merck Sharp & Dohme Corp., priority 2008, dated 2014):
pEC50: −log10 of the molar value. Read-outs that look alike come from different tables or passages of the source. Each block holds one compound with its values, some of them ahead of it.

Columns and labels:
[1] = target: T1, human β3 adrenergic receptor (Homo sapiens, UniProt P13945); assay: Functional assay: cAMP production (LANCE) in CHO cells expressing β3 adrenergic receptor; type: cell-based
T1 construct: expressed in transfected cells; host or cells: CHO cells, stably transfected
T1 sequence (P13945 whole entry): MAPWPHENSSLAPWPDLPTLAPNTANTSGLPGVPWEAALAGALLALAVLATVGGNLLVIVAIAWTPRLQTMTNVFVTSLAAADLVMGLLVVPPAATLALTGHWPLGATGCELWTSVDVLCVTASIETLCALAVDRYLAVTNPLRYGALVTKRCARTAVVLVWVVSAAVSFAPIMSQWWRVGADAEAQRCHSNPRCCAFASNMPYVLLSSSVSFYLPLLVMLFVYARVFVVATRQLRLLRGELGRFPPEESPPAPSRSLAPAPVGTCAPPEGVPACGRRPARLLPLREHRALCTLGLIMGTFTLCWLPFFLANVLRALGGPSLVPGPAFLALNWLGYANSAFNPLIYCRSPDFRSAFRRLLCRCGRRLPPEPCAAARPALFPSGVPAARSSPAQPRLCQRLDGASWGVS
Protocol: Chinese hamster ovary (CHO) cells, stably transfected with the cloned β-adrenergic receptor (β1, β2 or β3) are harvested after 3 days of subculturing. Harvesting of cells is done with Enzyme-free Dissociation Media (Specialty Media). Cells are then counted and resuspended in assay buffer (Hank's Balanced salt solution supplemented with 5 mM HEPES, 0.1% BSA) containing a phosphodiesterase inhibitor (IBMX, 0.6 mM). The reaction is initiated by mixing 6,000 cells in 6 μL with 6 μL Alexa Fluor labeled cAMP antibody (LANCE™ kit) which is then added to an assay well containing 12 μL of compound (diluted in assay buffer to 2× final concentration). The reaction proceeds for 30 min at room temperature and is terminated by the addition of 24 μL detection buffer (LANCE™ kit). The assay plate is then incubated for 1 h at room temperature and time-resolved fluorescence measured on a Perkin Elmer Envision reader or equivalent. The unknown cAMP level is determined by comparing fluorescence levels to a cAMP standard curve.
The non-selective, full agonist β-adrenergic ligand isoproterenol is used at all three receptors to determine maximal stimulation. […] Data are analyzed using Microsoft Excel and Graphpad Prism or an internally developed data analysis software package.

[2] = system: rats; conditions: intravenous administration, cited from earlier work
[3] = cAMP production, CHO cells, given as a range, read-out: human β3 functional activity

SMILES: O=C(Nc1ccc(C[C@@H]2CC[C@H]([C@H](O)c3ccccc3)N2)cc1)[C@@H]1CCc2cccc(=O)n21 (single isomer, unassigned) [Example 101]
pEC50 [1, 3]: 8.00 to 9.00

SMILES: C[C@H](Cc1ccc2c(c1)OC(C(=O)[O-])(C(=O)[O-])O2)NC[C@H](O)c1cccc(Cl)c1.[Na+].[Na+] [CL316243]
bladder capacity ([2]; cystometric studies): increases bladder capacity
bladder pressure [2]: reduces bladder pressure

SMILES: Cc1nc(CC(=O)Nc2ccc(C[C@@H]3CC[C@H]([C@H](O)c4ccccc4)N3)cc2)c(C)s1 [Example 10]
pEC50 ([1]; Table 4, text b832: human β3 functional activity, read-out: Human β3 Binding): 8.00 to 9.00

Second part, the compound after the results:

pEC50 [1, 3]: > 9.00
SMILES: O=C(Nc1ccc(C[C@@H]2CC[C@H]([C@H](O)c3ccccc3)N2)cc1)C1CCc2cccc(=O)n21 (single isomer, unassigned) [Example 102]

pEC50 ([1]; Table 5, read-out: Human β3 Functional): 8.00 to 9.00
SMILES: CC(C(=O)Nc1ccc(C[C@@H]2CC[C@H]([C@H](O)c3ccccc3)N2)cc1)n1ccccc1=O (single isomer, unassigned) [Example 203]

pEC50 ([1]; human β3 functional activity, given as ranges, read-out: Human β3 Functional): 8.00 to 9.00
SMILES: Nc1nc2c(s1)CCC2C(=O)Nc1ccc(CC2CCC(C(O)c3ccc(F)cc3)N2)cc1 (single isomer, unassigned) [Example 308]
